Molecules are shown by their SMILES. Some results are limits rather than exact numbers.

Results on five compounds are retold here after US20250002487A1, “HETEROCYCLIC COMPOUNDS AND USES THEREOF” (Ventus Therapeutics U.S., Inc., priority 2021, published 2025).

The experiment deals with human-cGAS (h-cGAS) (Homo sapiens, UniProt Q8N884). The experiment in a line: hcGAS Kinase-Glo Assay. The format is biochemical. Conditions: 40 nM h-cGAS, 100 μM ATP, 100 μM GTP, 25 nM dsDNA, 3 h incubation, read-out: hcGAS potency IC50. The essentials:
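Kinase-Glo luminescent read-out of human cGAS activity, following the published Lama et al. (2019) protocol with slightly altered conditions. Inhibition reported as IC50.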
On the technique in general: Kinase-Glo reads ATP consumption through a luciferase reaction.

Chain of human-cGAS (h-cGAS) (Q8N884 whole entry): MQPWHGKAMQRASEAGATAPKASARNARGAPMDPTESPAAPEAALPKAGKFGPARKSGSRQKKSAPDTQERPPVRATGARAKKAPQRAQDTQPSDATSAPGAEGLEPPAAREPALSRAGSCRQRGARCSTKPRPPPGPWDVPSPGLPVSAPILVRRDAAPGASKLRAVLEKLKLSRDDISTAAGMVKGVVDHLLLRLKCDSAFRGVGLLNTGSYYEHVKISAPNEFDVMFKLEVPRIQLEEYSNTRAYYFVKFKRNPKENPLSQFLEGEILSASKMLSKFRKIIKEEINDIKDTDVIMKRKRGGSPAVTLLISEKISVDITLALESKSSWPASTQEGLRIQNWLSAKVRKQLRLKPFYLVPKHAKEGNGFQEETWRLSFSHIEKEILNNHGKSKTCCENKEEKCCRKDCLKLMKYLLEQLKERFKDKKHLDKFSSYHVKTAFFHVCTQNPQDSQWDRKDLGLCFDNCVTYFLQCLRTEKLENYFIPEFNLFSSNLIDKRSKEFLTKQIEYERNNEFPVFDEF

Broadly, the IC50 is the concentration needed to halve the response being measured. Take `CSc1nnc(NC(=O)c2nc(-c3cccs3)oc2C)s1` [Compound 77, 5-methyl-N-(5-(methylthio)-1,3,4-thiadiazol-2-yl)-2-(thiophen-2-yl)oxazole-4-carboxamide]: the IC50 is not below 1000 nM. In the case of `CSc1nnc(NC(=O)c2nnc(N3CCCC3CO)o2)s1` (centres unmarked) [Compound 115, 5-[2-(hydroxymethyl)pyrrolidin-1-yl]-N-[5-(methylsulfanyl)-1,3,4-thiadiazol-2-yl]-1,3,4-oxadiazole-2-carboxamide], the IC50 was in the range of 500 to 1000 nM. Next, `CSc1nnc(NC(=O)c2noc3c2CCc2cccnc2-3)s1` [Compound 180, N-(5-(methylthio)-1,3,4-thiadiazol-2-yl)-4,5-dihydroisoxazolo[4,5-h]quinoline-3-carboxamide]: 500 to 1000 nM; `CSc1nnc(NC(=O)c2nc(-c3ccccc3)cs2)s1` [Compound 65, N-(5-(methylthio)-1,3,4-thiadiazol-2-yl)-4-phenylthiazole-2-carboxamide]: not below 1000 nM; `CSc1nnc(NC(=O)c2nnn(-c3ccccc3F)n2)s1` [Compound 138, 2-(2-fluorophenyl)-N-[5-(methylsulfanyl)-1,3,4-thiadiazol-2-yl]-1,2,3,4-tetrazole-5-carboxamide]: 500 to 1000 nM.
